Measured values reported in patent US20060069132A1, “Azolecarboxamide herbicides” (priority 2004, published 2006).

What was measured:
[1] = system: velvetleaf; experiment: Test B pre-/postemergence herbicide test; format: in vivo, Abutilon theophrasti; conditions: for Plant response rating, Velvetleaf: preemergence; for Velvetleaf plant response rating: postemergence, visual rating, scale 0 (no effect) to 100 (complete control)
How it was run: (§1)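 Pre: seeds sown, then sprayed. Post: 1–4-leaf plants (2–18 cm) sprayed at the same time. Paddy: flooded, treated at 2-leaf stage. Formulation: non-phytotoxic solvent with surfactant. Greenhouse 13–15 days; visual 0–100 score relative to controls.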

[2] = system: Surinam grass; experiment: Test B pre-/postemergence herbicide test; format: in vivo, Urochloa decumbens; conditions: for Plant response rating, Surinam Grass: preemergence; for Surinam Grass plant response rating: postemergence, visual rating, scale 0 (no effect) to 100 (complete control)
How it was run: as §1

[3] = system: barnyardgrass; experiment: Test B flooded paddy test; format: in vivo, Echinochloa crus-galli; conditions: 1000 g ai/ha, visual rating, scale 0 to 100 (0 no effect, 100 complete control), 13 to 15 days
How it was run: (§2)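 Read-out: visual comparison with controls, scored 0 to 100, where 100 means complete control and 0 no effect. Formulated chemicals were applied postemergence to plants 2–18 cm tall (1- to 4-leaf), or to flooded-paddy plants at the 2-leaf stage, then held 13 to 15 days under glass.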

[4] = system: redroot pigweed; experiment: Test A pre-/postemergence herbicide test; format: in vivo, Amaranthus retroflexus
How it was run: (§3)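 Sandy loam soil given preemergence directed spray; plants at 2 to 10 cm, one- to two-leaf stage, sprayed to runoff postemergence, compounds in non-phytotoxic solvent with surfactant. Injury rated visually versus untreated controls after about ten greenhouse days, 0 (no effect) to 100 (complete control); dash means not tested.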

[5] = system: large crabgrass; experiment: Test B pre-/postemergence herbicide test; format: in vivo, Digitaria sanguinalis; conditions: for Plant response rating, Crabgrass, Large: preemergence; for Crabgrass, Large plant response rating: postemergence, visual rating, scale 0 (no effect) to 100 (complete control)
How it was run: as §1

[6] = system: morningglory; experiment: Test B pre-/postemergence herbicide test; format: in vivo, Ipomoea coccinea; conditions: for Plant response rating, Morningglory: preemergence; for Morningglory plant response rating: postemergence, visual rating, scale 0 (no effect) to 100 (complete control)
How it was run: as §1

[7] = system: giant foxtail; experiment: Test A pre-/postemergence herbicide test; format: in vivo, Setaria faberi
How it was run: as §3

[8] = system: ducksalad; experiment: Test B flooded paddy test; format: in vivo, Heteranthera limosa; conditions: 1000 g ai/ha, visual rating, scale 0 to 100 (0 no effect, 100 complete control), 13 to 15 days
How it was run: as §2

[9] = system: large crabgrass; experiment: Test A pre-/postemergence herbicide test; format: in vivo, Digitaria sanguinalis
How it was run: as §3

[10] = system: blackgrass; experiment: Test B postemergence herbicide test; format: in vivo, Alopecurus myosuroides; conditions: postemergence, visual rating, scale 0 (no effect) to 100 (complete control)
How it was run: as §2

[11] = system: small flower umbrella sedge; experiment: Test B flooded paddy test; format: in vivo, Cyperus difformis; conditions: 1000 g ai/ha, visual rating, scale 0 to 100 (0 no effect, 100 complete control), 13 to 15 days
How it was run: as §2

[12] = system: lambsquarters; experiment: Test B pre-/postemergence herbicide test; format: in vivo, Chenopodium album; conditions: for Plant response rating, Lambsquarters: preemergence; for Lambsquarters plant response rating: postemergence, visual rating, scale 0 (no effect) to 100 (complete control)
How it was run: as §1

[13] = system: pigweed; experiment: Test B pre-/postemergence herbicide test; format: in vivo, Amaranthus retroflexus; conditions: for Plant response rating, Pigweed: preemergence; for Pigweed plant response rating: postemergence, visual rating, scale 0 (no effect) to 100 (complete control)
How it was run: as §1

[14] = system: rice; experiment: Test B flooded paddy test; format: in vivo, Oryza sativa; conditions: 1000 g ai/ha, visual rating, scale 0 to 100 (0 no effect, 100 complete control), 13 to 15 days
How it was run: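 Plants grow to 1- to 4-leaf stage (2–18 cm) for postemergence spraying, or to 2-leaf stage for the paddy test. Formulated compound is applied. Greenhouse holding lasts 13–15 days. Response is scored visually relative to controls, 0 no effect to 100 complete control; a dash means no result.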

[15] = system: cocklebur; experiment: Test B pre-/postemergence herbicide test; format: in vivo, Xanthium strumarium; conditions: for Plant response rating, Cocklebur: preemergence; for Cocklebur plant response rating: postemergence, visual rating, scale 0 (no effect) to 100 (complete control)
How it was run: as §1

[16] = system: wild oat; experiment: Test B postemergence herbicide test; format: in vivo, Avena fatua; conditions: postemergence, visual rating, scale 0 (no effect) to 100 (complete control)
How it was run: (§4)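 Scale 0–100: zero equals no visible effect, 100 complete control, judged by eye relative to controls. Timing: 13 to 15 days in greenhouse post-treatment. Growth stage at spraying: two leaves (paddy) or one to four leaves, 2–18 cm (postemergence).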

[17] = system: velvetleaf; experiment: Test A pre-/postemergence herbicide test; format: in vivo, Abutilon theophrasti
How it was run: as §3

[18] = system: giant foxtail; experiment: Test B pre-/postemergence herbicide test; format: in vivo, Setaria faberi; conditions: for Plant response rating, Foxtail, Giant: preemergence; for Foxtail, Giant plant response rating: postemergence, visual rating, scale 0 (no effect) to 100 (complete control)
How it was run: as §1

[19] = system: barnyardgrass; experiment: Test A pre-/postemergence herbicide test; format: in vivo, Echinochloa crus-galli
How it was run: as §3

[20] = system: barnyardgrass; experiment: Test B pre-/postemergence herbicide test; format: in vivo, Echinochloa crus-galli; conditions: for Plant response rating, Barnyardgrass: preemergence; for Barnyardgrass plant response rating: postemergence, visual rating, scale 0 (no effect) to 100 (complete control)
How it was run: as §1

[21] = system: wheat; experiment: Test B postemergence herbicide test; format: in vivo, Triticum aestivum; parameters: key to Wheat plant response rating: 0 = no effect, 100 = complete control; conditions: postemergence, visual rating, scale 0 (no effect) to 100 (complete control)
How it was run: as §4

[22] = system: rice; experiment: Test B pre-/postemergence herbicide test; format: in vivo, Oryza sativa; conditions: 500 g ai/ha; visual rating 0-100, 0 no effect, 100 complete control; preemergence
How it was run: as §1

[23] = system: corn; experiment: Test B pre-/postemergence herbicide test; format: in vivo, Zea mays; conditions: for Plant response rating, Corn: preemergence; for Corn plant response rating: postemergence, visual rating, scale 0 (no effect) to 100 (complete control)
How it was run: as §1

[24] = system: morningglory; experiment: Test A pre-/postemergence herbicide test; format: in vivo, Ipomoea spp.
How it was run: as §3

[25] = 500 g ai/ha, visual rating 0-100, 0 no effect, 100 complete control
[26] = 125 g ai/ha, 0 to 100 scale, 0 is no effect, 100 is complete control
[27] = Postemergence, 250 g ai/ha, 0 to 100 scale, 0 no effect, 100 complete control
[28] = Postemergence, 1000 g ai/ha, 0 to 100 scale, 0 no effect, 100 complete control
[29] = Preemergence, 1000 g ai/ha, visual rating, 0 to 100 scale (0 no effect, 100 complete control)
[30] = preemergence, 250 g ai/ha, visual injury, 0 to 100 scale (0 no effect, 100 complete control)

Structure (SMILES): CCn1nc(C(C)(C)C)cc1C(=O)Nc1cccc(S(C)(=O)=O)c1 [Compound 133]
- Plant response rating, Velvetleaf [1, 25]: 70
- Velvetleaf plant response rating ([1]; 125 g ai/ha): 10
- Velvetleaf plant response rating ([1]; 500 g ai/ha): 50
- Plant response rating, Velvetleaf [1, 26]: 20
- Plant response rating, Surinam Grass [2, 25]: 20
- Surinam Grass plant response rating ([2]; 125 g ai/ha): 0
- Surinam Grass plant response rating ([2]; 500 g ai/ha): 50
- Plant response rating, Surinam Grass [2, 26]: 0
- Barnyardgrass plant response rating [3]: 20
- Pigweed plant response rating [4, 27]: 30
- Plant response rating, Pigweed [4, 28]: 75
- Pigweed plant response rating [4, 29]: 65
- Pigweed plant response rating [4, 30]: 10
- Plant response rating, Crabgrass, Large [5, 25]: 80
- Crabgrass, Large plant response rating ([5]; 125 g ai/ha): 10
- Crabgrass, Large plant response rating ([5]; 500 g ai/ha): 30
- Plant response rating, Crabgrass, Large [5, 26]: 20
- Plant response rating, Morningglory [6, 25]: 10
- Morningglory plant response rating ([6]; 125 g ai/ha): 10
- Morningglory plant response rating ([6]; 500 g ai/ha): 20
- Plant response rating, Morningglory [6, 26]: 10
- Foxtail, Giant plant response rating [7, 27]: 10
- Plant response rating, Foxtail, Giant [7, 28]: 20
- Foxtail, Giant plant response rating [7, 29]: 30
- Foxtail, Giant plant response rating [7, 30]: 0
- Ducksalad plant response rating [8]: 50
- Crabgrass, Large plant response rating [9, 27]: 10
- Plant response rating, Crabgrass, Large [9, 28]: 20
- Crabgrass, Large plant response rating [9, 29]: 80
- Crabgrass, Large plant response rating [9, 30]: 25
- Blackgrass plant response rating ([10]; 125 g ai/ha): 0
- Blackgrass plant response rating ([10]; 500 g ai/ha): 10
- Sedge, Umbrella plant response rating [11]: 40
- Plant response rating, Lambsquarters [12, 25]: 100
- Lambsquarters plant response rating ([12]; 125 g ai/ha): 60
- Lambsquarters plant response rating ([12]; 500 g ai/ha): 70
- Plant response rating, Lambsquarters [12, 26]: 50
- Plant response rating, Pigweed [13, 25]: 100
- Pigweed plant response rating ([13]; 125 g ai/ha): 20
- Pigweed plant response rating ([13]; 500 g ai/ha): 50
- Plant response rating, Pigweed [13, 26]: 100
- Rice plant response rating [14]: 0
- Plant response rating, Cocklebur [15, 25]: 0
- Cocklebur plant response rating ([15]; 125 g ai/ha): 10
- Cocklebur plant response rating ([15]; 500 g ai/ha): 60
- Plant response rating, Cocklebur [15, 26]: 0
- Oat, Wild plant response rating ([16]; 125 g ai/ha): 20
- Oat, Wild plant response rating ([16]; 500 g ai/ha): 20
- Velvetleaf plant response rating [17, 27]: 10
- Plant response rating, Velvetleaf [17, 28]: 15
- Velvetleaf plant response rating [17, 29]: 35
- Velvetleaf plant response rating [17, 30]: 5
- Plant response rating, Foxtail, Giant [18, 25]: 40
- Foxtail, Giant plant response rating ([18]; 125 g ai/ha): 0
- Foxtail, Giant plant response rating ([18]; 500 g ai/ha): 20
- Plant response rating, Foxtail, Giant [18, 26]: 0
- Barnyardgrass plant response rating [19, 27]: 20
- Plant response rating, Barnyardgrass [19, 28]: 55
- Barnyardgrass plant response rating [19, 29]: 45
- Barnyardgrass plant response rating [19, 30]: 0
- Plant response rating, Barnyardgrass [20, 25]: 60
- Barnyardgrass plant response rating ([20]; 125 g ai/ha): 0
- Barnyardgrass plant response rating ([20]; 500 g ai/ha): 40
- Plant response rating, Barnyardgrass [20, 26]: 10
- Wheat plant response rating ([21]; 125 g ai/ha): 0
- Wheat plant response rating ([21]; 500 g ai/ha): 0
- Plant response rating, Rice [22]: 40
- Plant response rating, Corn [23, 25]: 0
- Corn plant response rating ([23]; 125 g ai/ha): 10
- Corn plant response rating ([23]; 500 g ai/ha): 20
- Plant response rating, Corn [23, 26]: 0
- Morningglory plant response rating [24, 27]: 10
- Plant response rating, Morningglory [24, 28]: 20
- Morningglory plant response rating [24, 29]: 0
- Morningglory plant response rating [24, 30]: 0
